Patent US7291734B2, “N-sulfonylaminothiazole” (Novartis AG, priority 2002, dated 2007)

Experiments:
steroid sulfatase [1] = biological target: T1, steroid sulfatase (Homo sapiens, UniProt P08842); assay: Assay using human skin homogenate (DHEAS cleavage); assay type: biochemical; parameters: Frozen specimens of human cadaver skin (about 100 mg per sample) are minced into small pieces; from tissue; host or cells: human cadaver skin, minced, in Triton X-100 buffer; conditions: human cadaver skin homogenate; [3H]DHEAS substrate; 18 hrs at 37° C.
T1 sequence (P08842 22-583): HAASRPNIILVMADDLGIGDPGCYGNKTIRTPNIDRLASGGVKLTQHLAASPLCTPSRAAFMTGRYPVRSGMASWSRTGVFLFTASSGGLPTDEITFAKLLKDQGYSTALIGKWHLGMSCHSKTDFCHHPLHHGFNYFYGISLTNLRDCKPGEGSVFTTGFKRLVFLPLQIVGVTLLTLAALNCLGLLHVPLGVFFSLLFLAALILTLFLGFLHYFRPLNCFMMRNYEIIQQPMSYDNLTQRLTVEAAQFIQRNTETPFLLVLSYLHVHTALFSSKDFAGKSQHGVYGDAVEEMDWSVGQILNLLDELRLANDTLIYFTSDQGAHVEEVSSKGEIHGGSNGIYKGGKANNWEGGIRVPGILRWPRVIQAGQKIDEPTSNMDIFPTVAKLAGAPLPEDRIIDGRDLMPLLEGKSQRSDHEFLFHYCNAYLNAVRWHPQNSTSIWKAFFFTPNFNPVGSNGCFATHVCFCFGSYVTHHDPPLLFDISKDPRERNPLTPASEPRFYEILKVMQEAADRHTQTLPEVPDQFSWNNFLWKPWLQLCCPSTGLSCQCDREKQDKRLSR
Method: Frozen specimens of human cadaver skin (about 100 mg per sample) are minced into small pieces (about 1×1 mm) using sharp scissors. The pieces obtained are suspended in ten volumes (w/w) of buffer (20 mM Tris-HCl, pH 7.5), containing 0.1% Triton X-100. Test compounds (e.g. compounds of the present invention or compounds for use in the present invention) are added at graded concentrations from stock solutions in ethanol or DMSO. Second, DHEAS as the substrate is added (1 μC/ml [^3H]DHEAS, specific activity: about 60 Cl/mmol, and 20 μM unlabeled DHEAS). Samples are incubated for 18 hrs at 37° C. At the end of the incubation period, 50 μl of 1 M Tris, pH 10.4 and 3 ml of toluene are added. A 1-ml aliquot of the organic phase is removed and subjected to liquid scintillation counting. The determined dpm-values in the aliquots are converted to nmol of DHEA cleaved per g of skin per hour.

steroid sulfatase [2] = biological target: T1, steroid sulfatase; assay: Assay of human steroid sulfatase (4-methylumbelliferyl sulfate cleavage, fluorescence); assay type: biochemical; parameters: Human placenta is obtained freshly after delivery and stripped of membranes and connective tissues; from tissue; host or cells: human placenta (microsomes, Triton X-100 extract, chromatographically purified); conditions: purified human placental steroid sulfatase; 4-methylumbelliferyl sulfate substrate; 37° C., 1 hour
Method: Human placenta is obtained freshly after delivery and stripped of membranes and connective tissues. For storage, the material is frozen at −70° C. After thawing, all further steps are carried out at 4° C., while pH values are adjusted at 20° C. 400 g of the tissue is homogenized in 1.2 l of buffer A (50 mM Tris-HCl, pH 7.4, 0.25 M sucrose). The homogenate obtained is centrifuged at 10,000×g for 45 minutes. The supernatant is set aside and the pellet obtained is re-homogenized in 500 ml of buffer A. After centrifugation, the two supernatants obtained are combined and subjected to ultracentrifugation (100,000×g, 1 hour). The pellet obtained is resuspended in buffer A and centrifugation is repeated. […]
It is known that purified human steroid sulfatase not only is capable to cleave steroid sulfates, but also readily cleaves aryl sulfates such as 4-methylumbelliferyl sulfate which is used in the present test system as an activity indicator. […]
Plates are incubated at 37° C. for 1 hour. […] Fluorescence intensity is determined in a Titertek Fluoroskan II instrument with λex=355 nm and λem=460 nm. […]
[formula] wherein I100 is the intensity observed in the absence of inhibitor and s is a slope factor. Estrone sulfamate is used as a reference compound and its IC50 value is determined in parallel to all other test compounds. […]

## 2-[2-(3,5-Bis-trifluoromethyl-benzenesulfonylamino)-6,7-dihydro-4H-thiazolo-[5,4-c]pyridin-yl]4-trifluoromethyl-benzamide [Example 1]
Steroid sulfatase [1]
  IC50: 160 nM

## CC12CCC3c4ccc(OS(N)(=O)=O)cc4CCC3C1CCC2=O (centres unmarked) [estrone sulfamate]
Steroid sulfatase [2]
  IC50: ~60 nM
